Experimental data taken from patent US7572768B2, “Methods for identifying compounds for regulating muscle mass or function using corticotropin releasing factor receptors” (priority 2001, dated 2009).
Ends that are not written are not given here.

What was measured:
Format in all cases: in vivo
[1] = tested on: skeletal muscle atrophy; assay: animal models of skeletal muscle atrophy (summary of FIGS. 1-9); details: theophylline administered alone in these atrophy models
Protocol: Theophylline was added to potentiate the duration and magnitude of action of the CRFR agonist therefore resulting in increased efficacy of these compounds. […] Statistical significance of the results was determined using ANCOVA (Douglas C. Montgomery, Design and Analysis of Experiments, John Wiley and Sons, New York (2nd ed. 1984)). Abbreviations used in FIGS. 1-9: g-gram; SEM-standard error of the mean.

[2] = tested on: skeletal muscle atrophy; assay: Example 13: prophylactic treatment of skeletal muscle atrophy in comatose subject; details: human 60 kg, slow i.v. infusion once each day, 5 ml of 12 mg/ml stock in 500 ml saline
Protocol: A human subject weighing 60 kg is admitted to the hospital in a comatose state. The subject is treated by this method to prevent atrophy of the skeletal muscle of the entire body due to disuse in the comatose state. Specifically, once each day while in the coma, the subject is administered, via slow intravenous infusion, approximately 500 ml of an aqueous solution that is prepared by addition of 5 ml of the following stock solution to 500 ml of sterile saline: […]

[3] = tested on: denervation-induced atrophy of skeletal muscle; assay: mouse sciatic nerve denervation atrophy model; details: FIG. 5, day nine
Protocol: Legend: A—physiological saline (control); B—sauvagine (0.01 mg/kg)+theophylline; C—sauvagine (0.03 mg/kg)+theophylline; D—sauvagine (0.1 mg/kg)+theophylline; E—sauvagine (1.0 mg/kg)+theophylline; *—p≦0.05 compared to saline. Following denervation of the right sciatic nerve, male mice were injected subcutaneously in the midscapular region twice daily with sauvagine, at the doses indicated above or vehicle control (physiological saline) for nine days. Sauvagine was co-administered with 30 mg/kg theophylline. On day nine, the medial gastrocnemius muscle was removed and weighed to determine the degree of atrophy.
Legend: A—water (control); B—sauvagine (0.1 mg/kg/d); C—sauvagine (0.3 mg/kg/d); D—sauvagine (1.0 mg/kg/d); *—p≦0.05 compared to water. Following denervation of the right sciatic nerve, male mice were dosed with either sauvagine or vehicle control (physiological saline) by continuous infusion using an Alzet osmotic minipump at 5 μl/hr until the end of the experimental period (without additional theophylline). The daily delivered dose of sauvagine is indicated above. Minipump implantation was performed at the time of sciatic nerve denervation. On day nine the tibialis anterior muscle was removed and weighed to determine the degree of atrophy.
Legend: A—water (control); B—sauvagine (1 mg/kg/d); C—urocortin (1.0 mg/kg/d); *—p≦0.05 compared to water. Following denervation of the right sciatic nerve, male mice were dosed with the above indicated agents or vehicle control (physiological saline) by continuous infusion using an Alzet osmotic minipump at 5 μl/hr until the end of the experimental period (without additional theophylline). The daily delivered dose of the agents is indicated above. Minipump implantation was performed at the same time as the sciatic nerve denervation. On day nine the tibialis anterior muscle was removed and weighed to determine the degree of atrophy.
Legend: A-C—wild-type mice; D-F—CRF2R knockout mice. A and D—water (control); B and E—sauvagine (0.3 mg/kg/d); C and F—sauvagine (1.0 mg/kg/d); *—p≦0.05 compared to saline. Following denervation of the right sciatic nerve, female wild-type and CRF2R knockout mice were dosed with sauvagine or vehicle control by continuous infusion using an Alzet osmotic minipump at 5 μl/hr for nine days at the daily delivered dose indicated above. On day nine, the tibialis anterior muscle was removed and weighed to determine the degree of atrophy.
The sciatic nerve denervation atrophy model involves anesthetizing the animal followed by the surgical removal of a short segment of either the right or left sciatic nerve, e.g., in mice the sciatic nerve is isolated approximately at the midpoint along the femur and a 3-5 mm segment is removed. This denervates the lower hind limb musculature resulting in atrophy of these muscles. Typically, innervation to the biceps femoris is left intact to provide satisfactory motion of the knee for virtually normal ambulation. Typically, in untreated animals, muscle mass of the denervated muscles is reduced 30-50% ten days following denervation. Following denervation, test compounds are administered e.g., by injection or by continuous infusion, e.g., via implantation of an osmotic minipump (e.g., Alzet, Palo Alto, Calif.), to determine their effect on denervation induced skeletal muscle atrophy. At various times following denervation, the animals are euthanized and lower leg muscles are dissected rapidly from both the denervated and nondenervated legs, the muscles, cleaned of tendons and connective tissue, are weighed. The extent of atrophy in the affected muscles is analyzed, for example, by measuring muscle mass, muscle cross-sectional area, myofiber cross-sectional area or contractile protein content.

[4] = tested on: disuse-induced atrophy of skeletal muscle; assay: mouse leg casting disuse atrophy model; details: male mice, 0.3 mg/kg s.c. twice daily + theophylline 30 mg/kg i.p., ten days
Protocol: (§1) Legend: A—physiological saline (control); B—theophylline; C—sauvagine (0.03 mg/kg)+theophylline; D—sauvagine (0.1 mg/kg)+theophylline; E—sauvagine (0.3 mg/kg)+theophylline; *—p≦0.05 compared to saline. Following casting of the right hind leg, male mice were injected subcutaneously in the midscapular region twice daily, with sauvagine or vehicle control (physiological saline) for ten days at the daily delivered dose indicated. Sauvagine was co-administered with twice daily intra-peritoneal dosing of the phosphodiesterase inhibitor theophylline (30 mg/kg). On day ten, the medial gastrocnemius and tibialis anterior muscles were removed and weighed to determine the degree of atrophy.
as §1, with “B—urocortin” for “B—theophylline; C—sauvagine (0.03 mg/kg)+theophylline; D—sauvagine (0.1 mg/kg)+theophylline; E—sauvagine”, “urocortin” for “sauvagine”, “days. Urocortin was administered” for “days”, “doses indicated in the description of FIGS. 6A and 6B. Urocortin” for “daily delivered dose indicated. Sauvagine”
Legend: A—non casted muscle control; B—casted muscle, saline control; C—casted muscle, sauvagine (0.3 mg/kg)+theophylline (30 mg/kg); *—p≦0.05 compared to saline. Following casting of the right hind leg, male mice were injected subcutaneously in the midscapular region twice daily, with either sauvagine or vehicle control (physiological saline) for ten days at the doses indicated above. Sauvagine was co-administered 30 mg/kg theophylline. On day ten, the EDL and soleus muscles were removed and absolute force and mass measurements taken to determine the degree of atrophy.
The leg casting disuse atrophy model involves casting one hind leg of an animal from the knee down through the foot. Typically, muscle mass is reduced 20-40% after ten days of casting. Following casting, test compounds are administered by injection or by continuous infusion via implantation of an osmotic minipump (e.g., Alzet, Palo Alto, Calif.) to determine their effect on leg casting induced skeletal muscle atrophy. At various times following leg casting, the extent of atrophy in the affected muscles is analyzed as described above for the denervation model.
The extensor digitorum longus (EDL) and soleus muscles are removed, tendon-to-tendon from the casted mouse leg. A silk suture is tied to each tendon of the isolated muscles and the muscles are placed into a plexiglass chamber filled with Ringer solution (137 mM sodium chloride, 24 mM sodium bicarbonate, 11 mM glucose, 5 mM potassium chloride, 1 mM magnesium sulfate, 1 mM sodium phosphate, 0.025 mM tubocurarine, all at pH 7.4 and oxygenated with 95% oxygen/5% carbon dioxide) constantly bubbled with 95% oxygen/5% carbon dioxide maintained at 25° C. Muscles are aligned horizontally between a servomotor lever arm (Model 305B-LR Cambridge Technology Inc., Watertown Mass., USA) and the stainless steel hook of a force transducer (Model BG-50; Kulite Semiconductor Products Inc., Leonia, N.J., USA) and field stimulated by pulses transmitted between two platinum electrodes placed longitudinally on either side of the muscle. Square wave pulses (0.2 ms duration) generated by a personal computer with a Labview board (Model PCI-MIO 16E-4), Labview Inc., Austin, Tex., USA) are amplified (Acurus power amplifier model A25, Dobbs Ferry, N.Y., USA) to increase titanic contraction. Stimulation voltage and muscle length (Lo) are adjusted to obtain maximum isometric twitch force. Maximum titanic force production (Po) is determined from the plateau of the frequency-force relationship.

With `Cn1c(=O)c2[nH]cnc2n(C)c1=O` [Theophylline, theophylline] the “effect on skeletal muscle atrophy” value [1] was “had no effect”.
For “Urocortin-II (VILSLDVPIGLLRILLEQARYKAARNQAATNAQILAHV; listed as Mus musculus) [CRF analog]”, the “skeletal muscle mass and function” value [2] was “measurable preservation of skeletal muscle mass and function”.
In the case of “urocortin (DNPSLSIDLTFHLLRTLLELARTQSQRERAEQNRIIFDSV; ends and bridges not checked; UniProt P55089 83-122, looked up) [mammalian congener of urotensin, CRFR agonist (Bachem Biosciences, Inc.)]”, the “hypertrophy of the non-denervated leg (tibialis anterior muscle)” value ([3]; 1.0 mg/kg/d by osmotic minipump) is reported as “hypertrophy of the non-denervated leg was observed”, the “denervation-induced atrophy of the tibialis anterior muscle (muscle weight)” value ([3]; male mice, 1 mg/kg/d continuous infusion by osmotic minipump, no theophylline) is reported as “inhibit denervation-induced atrophy” and the “disuse-induced atrophy of the tibialis anterior muscle (muscle weight)” value ([4]; FIG. 6A) is reported as “inhibits disuse-induced atrophy”. The “disuse-induced atrophy of the medial gastrocnemius muscle (muscle weight)” value ([4]; FIG. 6B) was “inhibits disuse-induced atrophy”.
